Data: patent US9243254B2, “Method for transforming a bacterium belonging to the streptococcus genus by natural competence” (priority 2009, dated 2016)

Tests used:
Format in all cases: cell-based, Streptococcus thermophilus
[1] = test system: LMD9-Δblp::PcomX-luxABΔshp316::P32-cat; assay: Natural transformation in CDM of the shp316-deleted strain upon addition of synthetic peptides (test A); conditions: for Transformation rate, With peptide addition / Restoration of the competence defect: 1 μM synthetic peptide; for Transformation rate, With peptide addition / Transformation rate: 1 μg/mL pGIUD0855ery; for Transformation rate, With peptide addition: CDM, erythromycin selection
Protocol: A mutant strain of LMD-9 in which the shp316 gene (which is the gene encoding the peptide Shp316) has been inactivated, such as strain LMD9-Δblp::PcomX-luxABΔshp316::P32-cat (see Example 2 for details on this strain) is pre-cultivated in M17-lactose medium. The cells of the preculture are harvested (5000 g, 9 minutes, 20° C.) and washed twice in Chemically Defined Medium (CDM, see Annex I) and then resuspended in CDM. The washed cells are diluted in fresh CDM medium to obtain an optical density of 0.05 at 600 nm, and then incubated at 37° C. After 1.5 h of incubation, the culture is separated in 2 aliquots of 10 mL and 0 or 1000 nM of peptide are added in the culture samples. Finally, each 10 mL-aliquot is divided in 2 samples of 5 mL each. One of the 2 samples receives 1 μg/mL pGIUD0855ery, a plasmid bearing an erythromycin resistance gene. The competence phenotype of the samples is studied by performing natural transformation experiments as described in example 1. The cultures are grown for 6 hours and serial dilutions are plated on the surface of M17-lactose agar medium containing or not 2.5 μg/mL of erythromycin. The transformation rate in the presence or absence of peptide is calculated for each sample; it is expressed as the ratio of erythromycin-resistant cells among the total bacterial population.
The experimental strategy is described below. Strain LMD9-Δblp::PcomX-luxABΔshp316::P32-cat is precultivated in M17-lactose medium. The cells of the preculture were harvested (5000 g, 9 minutes, 20° C.) and washed twice in CDM and then resuspended in CDM. The washed cells are diluted in fresh CDM to obtain an optical density of 0.05 at 600 nm, and then incubated at 37° C. After 1.5 h of incubation, in one set of experiment, 1 μM of one of the tested synthetic peptides and 1 μg/mL of pGIUD0855ery were added to the culture; whereas 1 μg/mL of pGIUD0855ery but no synthetic peptide was added to the second set of experiment. The cultures were grown during 6 hours and serial dilutions were plated on the surface of M17-lactose agar medium containing 2.5 μg/mL of erythromycin to measure transformation efficiency.
Ability of peptides derived from Shp316 to restore the competence defect of LMD9-Δblp::PcomX-luxABΔshp316::P32-cat was further investigated focusing on the synthetic peptide PYFAGCL. Experimental work was performed as described above except that various concentrations of PYFAGCL were used: 0 nM, 1 nM, 10 nM, 100 nM, 500 nM, 1 μM, 2.5 μM and 5 μM. […]

S. thermophilus LMD-9 = assay: Natural transformation in CDM upon addition of synthetic peptide
Protocol: Similarly to the protocol used in example 4, strains LMD-9, LMG18311, CNRZ1066 and JIM8777 were pre-cultivated in M17-lactose medium. The cells of the precultures were harvested (5000 g, 9 minutes, 20° C.) and washed twice in CDM and then resuspended in CDM. The washed cells were diluted in fresh CDM medium to obtain an optical density of 0.05, and then incubated at 37° C. After 1.5 h of incubation, in one set of experiment, 1 μM of one of the tested synthetic peptides and 1 μg/mL of pGIUD0855ery DNA (in case of S. thermophilus strains), or 1 μg/ml of pG+host09 DNA (in case of S. salivarius strains) were added to the culture, whereas 1 μg/mL of DNA but no synthetic peptide was added to the second set of experiment. The cultures were grown during 6 hours and serial dilutions were plated on the surface of M17-lactose agar medium containing 2.5 μg/mL of erythromycin to measure transformation efficiency. Transformed S. thermophilus and S. salivarius cells are selected at 37° C. and 29° C., respectively.
Similarly to the protocol used in example 4, various S. thermophilus strains, including LMD-9, CNRZ1066 and LMG18311 used as controls, were pre-cultivated in M17-lactose medium. The cells of the precultures were harvested (5000 g, 9 minutes, 20° C.) and washed twice in CDM and then resuspended in CDM. The washed cells were diluted in fresh CDM medium to obtain an optical density of 0.05, and then incubated at 37° C. After 1.5 h of incubation, in one set of experiment, 1 μM of one of the tested synthetic peptides (LPYFAGCL) (SEQ ID NO: 85) and 1 μg/mL of pGIUD0855cat DNA were added to the culture, whereas 1 μg/mL of DNA but no synthetic peptide was added to the second set of experiment. Plasmid pGIUD0855cat is a pUC18-derivative containing a chloramphenicol resistance cassette flanked by 1-kb fragments corresponding to the upstream and downstream regions of stu0855. Upon transformation, it promotes the genetic replacement of stu0855 by P32-cat through homologous recombination (FIG. 7). The cultures were grown during 6 hours and serial dilutions were plated on the surface of M17-lactose agar medium containing 5 μg/mL of chloramphenicol to measure transformation efficiency. Transformed S. thermophilus cells were selected at 37° C.; when transformants were obtained, the transformation efficiency was calculated and is given in Table 9.
The overlapping PCR product was transferred through natural competence in strain LMD-9. Similarly to the protocol used in example 4, strain LMD-9 was pre-cultivated in M17-lactose medium. The cells of the precultures were harvested (5000 g, 9 minutes, 20° C.) and washed twice in CDM and then resuspended in CDM. The washed cells were diluted in fresh CDM medium to obtain an optical density of 0.05, and then incubated at 37° C. After 1.5 hour of incubation, 1 μM of LPYFAGCL (SEQ ID NO: 85) synthetic peptide and 1 μg/mL of the PCR product prepared above (joining the A, B and C fragments) were added to the culture. After the DNA uptake by the bacteria, the P32-cat cassette flanked by the two lox sites spontaneously replaces the his operon by double homologous recombination (FIG. 10). The transformation rate of the overlapping PCR was 1.1×10^−6 (160 Chloramphenicol-resistant CFU/mL). One isolate named CB15 was selected. […]

S. thermophilus LMG18311 = assay: as above
[2] = 1 μM LPYFAGCL, 1 μg/mL pUC18_stu0855::P32cat, chloramphenicol selection
[3] = 1 μM PYFAGCL, 1 μg/mL pGIUD0855ery
[4] = 1 μM peptide in CDM versus no peptide

Row | Substance | Transformation rate, With peptide addition [1] | Restoration of the competence defect ([1]; result in words) | Chloramphenicol-resistant CFU obtained with the overlapping PCR (S. thermophilus LMD-9; 1 μM LPYFAGCL, 1 μg/mL overlapping PCR product) [CFU/mL] | Transformation rate of the overlapping PCR (S. thermophilus LMD-9; 1 μM LPYFAGCL, 1 μg/mL overlapping PCR product (his operon replacement by lox66-P32cat-lox71)) | Transformation rate, With peptide addition (S. thermophilus LMD-9; [2]) | Transformation rate, With peptide addition (S. thermophilus LMG18311; [2]) | Calculated efficiency of transformation (S. thermophilus LMG18311; LPYFAGCL-induced competence, forty six μg of LMD-9 genomic DNA, selection on CDM agar deprived of histidine) [µg⁻¹] | Transformation rate ([1]; 1 nM PYFAGCL) | Transformation rate ([1]; 10 nM PYFAGCL) | Transformation rate ([1]; 100 nM PYFAGCL) | Transformation rate ([1]; 500 nM PYFAGCL) | Transformation rate ([1]; 1000 nM PYFAGCL) | Transformation rate ([1]; 2500 nM PYFAGCL) | Transformation rate ([1]; 5000 nM PYFAGCL) | Restoration of competence ([1]; concentrations lower than 100 nM, result in words) | Concentration at which maximum efficiency of the peptide was recorded ([1]; dose-response 0 nM to 5 μM) [µM] | Transformation rate, With peptide addition (S. thermophilus LMD-9; [3]) | Increase of natural competence upon extracellular peptide addition (S. thermophilus LMD-9; [4]) [fold] | Transformation rate, With peptide addition (S. thermophilus LMG18311; [3]) | Increase of efficiency of transformation upon peptide addition (S. thermophilus LMG18311; [4]) [fold]
1 | LPYFAGCL (fragment) [synthetic peptide corresponding to a C-terminal fragment of Shp316] | 3.18 × 10^−3 | allowed to restore the competence defect | 160 | 1.1×10^−6 | 5.4 × 10^−3 | 1.3 × 10^−1 | 0.00016 | – | – | – | – | – | – | – | – | – | – | – | – | –
2 | PYFAGCL (fragment) | 4.78 × 10^−3 | allowed to restore the competence defect | – | – | – | – | – | <10^−8 | <10^−8 | 4.14 × 10^−7 | 1.01 × 10^−3 | 5.15 × 10^−3 | 3.10 × 10^−3 | 6.38 × 10^−3 | did not restore the competence | 1 | 3.10 × 10^−3 | 10 | 3.17 × 10^−4 | 1000
